Activity calls are given as the source filed them. No cut-off for these calls is given here.
How the values were obtained:
[1] = molecular target: T1, Neutral amino acid transporter B(0) (Homo sapiens) (UniProt Q15758); test: Inhibition of ASCT2 in human A549 cells assessed as reduction in [13C]-Gln uptake at 50 uM relative to control; assay type: cell-based
T1 sequence (whole entry): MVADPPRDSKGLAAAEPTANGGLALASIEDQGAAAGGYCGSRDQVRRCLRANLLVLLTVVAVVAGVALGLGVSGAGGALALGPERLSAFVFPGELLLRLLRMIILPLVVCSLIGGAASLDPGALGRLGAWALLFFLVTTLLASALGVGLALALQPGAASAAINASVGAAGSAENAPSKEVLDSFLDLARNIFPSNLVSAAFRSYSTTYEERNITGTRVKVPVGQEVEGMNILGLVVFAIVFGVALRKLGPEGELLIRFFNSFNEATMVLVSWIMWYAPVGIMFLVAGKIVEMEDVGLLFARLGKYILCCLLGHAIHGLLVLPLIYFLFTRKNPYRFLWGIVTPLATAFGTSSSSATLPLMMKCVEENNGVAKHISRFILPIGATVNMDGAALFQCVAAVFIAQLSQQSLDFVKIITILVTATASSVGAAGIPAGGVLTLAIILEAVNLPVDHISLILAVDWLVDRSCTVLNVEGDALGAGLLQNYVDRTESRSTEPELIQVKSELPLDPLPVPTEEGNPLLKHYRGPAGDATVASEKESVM

[2] = molecular target: T1, Neutral amino acid transporter B(0) (Homo sapiens); test: Inhibition of ASCT2 in HEK293 cells assessed as reduction in [13C]-Gln uptake at 50 uM relative to control; assay type: cell-based
A549 [3] = test: Antiproliferative activity against human A549 cells assessed as reduction in cell viability after 72 hrs by MTT assay; assay type: functional, cell-based; conditions: A549, 72 h
[4] = molecular target: T2, Neutral amino acid transporter B(0) (Homo sapiens, UniProt Q15758); test: Inhibition of ASCT2 in human A549 cells assessed as reduction in glutamine uptake preincubated for 5 mins followed by substrate addition and measured after 15 mins; assay type: cell-based
T2 sequence (Q15758 whole entry): T1 sequence (whole entry)

[5] = Metabolic stability in rat liver microsomes assessed as half life; assay type: ADME, Microsome
A549 [6] = test: Induction of apoptosis in human A549 cells measured after 24 hrs by annexin-V/PI staining based flow cytometry analysis; assay type: functional, cell-based; conditions: dose 5-10 µM
Cell membrane [7] = test: Induction of mitochondrial membrane potential loss in human A549 cells assessed as […] aggregates at 10 uM incubated for 24 hrs by JC-1 staining based flow cytometry analysis (reference value: 93.8%); assay type: cell membranes
Cell membrane [8] = test: Induction of mitochondrial membrane potential loss in human A549 cells assessed as […] aggregates incubated for 24 hrs by JC-1 staining based flow cytometry analysis; assay type: cell membranes; conditions: dose 5-10 µM
A549 [9] = test: Induction of apoptosis in human A549 cells assessed as caspase 9 activation at 5 to 10 uM incubated for 24 hrs by Western blot analysis; assay type: functional, cell-based; conditions: dose 5-10 µM
A549 [10] = test: Induction of apoptosis in human A549 cells assessed as downregulation of c-Myc expression at 5 to 10 uM incubated for 24 hrs by Western blot analysis; assay type: functional, cell-based; conditions: dose 5-10 µM
[11] = Cmax in Sprague-Dawley rat at 10 mg/kg, ip incubated for 24 hrs by LC-MS/MS analysis; assay type: ADME, organism-based; conditions: in vivo
[12] = AUC (0 to t) in Sprague-Dawley rat at 10 mg/kg, ip incubated for 24 hrs by LC-MS/MS analysis; assay type: ADME, organism-based; conditions: in vivo
[13] = Half life in Sprague-Dawley rat at 10 mg/kg, ip incubated for 24 hrs by LC-MS/MS analysis; assay type: ADME, organism-based; conditions: in vivo
[14] = Apparent clearance in Sprague-Dawley rat at 10 mg/kg, ip incubated for 24 hrs by LC-MS/MS analysis; assay type: ADME, organism-based; conditions: in vivo
[15] = MRT (0 to infinity) in Sprague-Dawley rat at 10 mg/kg, ip incubated for 24 hrs by LC-MS/MS analysis; assay type: ADME, organism-based; conditions: in vivo
A549 [16] = test: Induction of autophagy in human A549 cells assessed as downregulation of AKT phosphorylation level at 5 to 10 uM measured after 24 hrs by Western blot analysis; assay type: functional, cell-based; conditions: dose 5-10 µM
A549 [17] = test: Induction of autophagy in human A549 cells assessed as downregulation of p70S6K level at 5 to 10 uM measured after 24 hrs by Western blot analysis; assay type: functional, cell-based; conditions: dose 5-10 µM
A549 [18] = test: Induction of autophagy in human A549 cells assessed as downregulation of p62 level at 5 to 10 uM measured after 24 hrs by Western blot analysis; assay type: functional, cell-based; conditions: dose 5-10 µM
A549 [19] = test: Induction of autophagy in human A549 cells assessed as increase in LC3 II expression at 5 to 10 uM measured after 24 hrs by Western blot analysis; assay type: functional, cell-based; conditions: dose 5-10 µM
A549 [20] = test: Antitumor activity against human A549 cells xenografted in BALB/c nude mouse assessed as inhibition of tumor volume at 25 to 50 mg/kg, ip measured daily for 3 weeks; assay type: functional, organism-based; conditions: dose 25-50 mg/kg
A549 [21] = test: Antitumor activity against human A549 cells xenografted in BALB/c nude mouse assessed as tumor growth inhibition at 25 mg/kg, ip measured daily for 3 weeks relative to control; assay type: functional; conditions: A549, 504 h, read-out: TGI
[22] = Toxicity in BALB/c nude mouse assessed as effect on liver at 25 to 50 mg/kg, ip measured after 3 weeks by H and E staining based analysis; assay type: organism-based; conditions: in vivo, 504 h, dose 25-50 mg/kg
[23] = molecular target: T3, Sodium-coupled neutral amino acid symporter 2 (Homo sapiens) (UniProt Q96QD8); test: Inhibition of SNAT2 (unknown origin) overexpressed in HEK293 cells assessed as reduction in [13C]-Gln uptake preincubated for 5 mins followed by substrate addition and measured after 15 mins; assay type: cell-based; conditions: time 20.0 min
T3 sequence (whole entry): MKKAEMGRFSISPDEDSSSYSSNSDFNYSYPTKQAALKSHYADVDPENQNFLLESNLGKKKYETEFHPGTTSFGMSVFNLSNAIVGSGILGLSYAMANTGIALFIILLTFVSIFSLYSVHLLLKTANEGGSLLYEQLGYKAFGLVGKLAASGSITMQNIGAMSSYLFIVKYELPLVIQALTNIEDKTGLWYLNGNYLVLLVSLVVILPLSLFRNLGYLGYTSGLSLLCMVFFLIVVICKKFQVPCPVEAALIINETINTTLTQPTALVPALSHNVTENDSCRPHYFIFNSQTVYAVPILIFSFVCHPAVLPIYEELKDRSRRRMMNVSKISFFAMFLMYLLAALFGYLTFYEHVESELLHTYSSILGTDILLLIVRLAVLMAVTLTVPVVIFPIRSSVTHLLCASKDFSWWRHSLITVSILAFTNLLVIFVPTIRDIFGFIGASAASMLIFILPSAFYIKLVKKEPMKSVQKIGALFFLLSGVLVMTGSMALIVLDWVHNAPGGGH

A549 [24] = test: Inhibition of Gln uptake in human A549 cells assessed as reduction in fumarate level incubated for 24 hrs by LC-MS/MS analysis; assay type: functional, cell-based
NSCLC [25] = test: Antiproliferative activity against human NSCLC cells cultured as 2862 organoids assessed as cell viability incubated for 96 hrs by Celltiter-glo viability assay; assay type: functional, cell-based
NSCLC [26] = test: Antiproliferative activity against human NSCLC cells cultured as 2422 organoids assessed as cell viability incubated for 96 hrs by Celltiter-glo viability assay; assay type: functional, cell-based
NSCLC [27] = test: Antiproliferative activity against human NSCLC cells cultured as H1975 organoids assessed as cell viability incubated for 96 hrs by Celltiter-glo viability assay; assay type: functional, cell-based

| SMILES | inhibition [1] [%] | inhibition [2] [%] | IC50 (A549 [3]) [µM] | IC50 [4] [µM] | half-life [5] [h] | Activity (A549 [6]) | Activity (Cell membrane [7]) [%] | Activity (Cell membrane [8]) | Activity (A549 [9]) | Activity (A549 [10]) | Cmax [11] [ng/mL] | AUC(0-t) at 24 h [12] [ng·h/mL] | half-life [13] [h] | CL/F [14] [mL/min/kg] | MRT inf [15] [h] | Activity (A549 [16]) | Activity (A549 [17]) | Activity (A549 [18]) | Activity (A549 [19]) | Activity (A549 [20]) | further results |
| --- | --- | --- | --- | --- | --- | --- | --- | --- | --- | --- | --- | --- | --- | --- | --- | --- | --- | --- | --- | --- | --- |
| N[C@@H](CCN(Cc1ccccc1OCC#Cc1ccc(Cl)cc1)Cc1ccccc1OCC#Cc1ccc(Cl)cc1)C(=O)O | 90.8 | 93.2 | 10.3 | 5.6 | 0.619 | Dose-Dependent Effect | 82.4 | Dose-Dependent Effect | Active | Active | 323 | 2670 | 9.41 | 60.5 | 13.7 | Active | Active | Active | Active | Active | inhibition in vivo at 25 mg/kg (A549 [21]): 65%; Activity [22]: Toxic; inhibition [23]: inactive; inhibition (A549 [24]): Active; IC50 (NSCLC [25]): 5.21 µM; IC50 (NSCLC [26]): 7.34 µM; IC50 (NSCLC [27]): 8.45 µM |
| CC(C)(C)c1ccc(OCC#Cc2ccccc2)c(CN(CC[C@H](N)C(=O)O)Cc2cc(C(C)(C)C)ccc2OCC#Cc2ccccc2)c1 | 55.6 | 98.3 | 5.83 | 19.2 | 2.78 | Dose-Dependent Effect | 60.3 | Dose-Dependent Effect | Active | Active | 874 | 13800 | 19.4 | 12 | 20.7 | Active | Active | Active | Active | Active | inhibition in vivo at 25 mg/kg (A549 [21]): 70%; Activity [22]: Toxic; inhibition [23]: inactive; inhibition (A549 [24]): Active; IC50 (NSCLC [25]): 2.85 µM; IC50 (NSCLC [26]): 0.12 µM; IC50 (NSCLC [27]): 1.09 µM |

From ChEMBL document CHEMBL5537180, “Discovery of Novel Aminobutanoic Acid-Based ASCT2 Inhibitors for the Treatment of Non-Small-Cell Lung Cancer” (J Med Chem, 2024)
